# Data reported in ChEMBL document CHEMBL3784917, “Recent Progress in Histone Demethylase Inhibitors” (J Med Chem, 2016).
# Columns and labels:
# [1] = biological target: T1, Lysine-specific demethylase 4B (Homo sapiens, UniProt O94953); assay: biochemical
# T1 sequence (O94953 whole entry): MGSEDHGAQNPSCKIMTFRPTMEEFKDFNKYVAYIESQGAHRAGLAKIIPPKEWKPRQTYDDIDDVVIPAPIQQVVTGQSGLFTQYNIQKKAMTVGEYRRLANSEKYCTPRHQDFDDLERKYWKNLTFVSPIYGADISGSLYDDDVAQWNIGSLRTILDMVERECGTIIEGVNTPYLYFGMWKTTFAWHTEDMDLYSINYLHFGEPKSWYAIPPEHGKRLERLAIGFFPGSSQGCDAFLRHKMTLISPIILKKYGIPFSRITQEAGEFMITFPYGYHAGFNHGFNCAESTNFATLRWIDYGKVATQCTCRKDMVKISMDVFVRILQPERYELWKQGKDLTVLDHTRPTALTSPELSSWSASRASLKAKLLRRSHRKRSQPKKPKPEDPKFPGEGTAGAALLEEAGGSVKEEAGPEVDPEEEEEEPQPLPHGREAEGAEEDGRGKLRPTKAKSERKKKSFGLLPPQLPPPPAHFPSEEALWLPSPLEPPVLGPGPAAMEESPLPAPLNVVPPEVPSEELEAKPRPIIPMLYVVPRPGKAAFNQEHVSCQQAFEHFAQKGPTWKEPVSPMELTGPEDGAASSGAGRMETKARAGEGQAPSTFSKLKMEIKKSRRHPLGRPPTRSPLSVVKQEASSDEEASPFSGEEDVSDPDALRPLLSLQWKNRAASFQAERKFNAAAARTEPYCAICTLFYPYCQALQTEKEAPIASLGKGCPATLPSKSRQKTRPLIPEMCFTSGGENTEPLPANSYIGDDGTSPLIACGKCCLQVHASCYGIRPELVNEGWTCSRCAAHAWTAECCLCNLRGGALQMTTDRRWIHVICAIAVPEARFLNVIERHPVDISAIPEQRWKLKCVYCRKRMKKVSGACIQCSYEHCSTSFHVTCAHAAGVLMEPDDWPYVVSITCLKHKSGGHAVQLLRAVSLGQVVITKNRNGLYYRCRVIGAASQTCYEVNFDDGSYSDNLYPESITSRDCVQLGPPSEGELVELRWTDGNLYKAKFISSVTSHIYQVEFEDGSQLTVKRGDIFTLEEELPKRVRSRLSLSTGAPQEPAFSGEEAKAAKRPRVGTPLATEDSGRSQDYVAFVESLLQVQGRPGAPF
# [2] = Antiproliferative activity against human VCaP cells assessed as reduction in cell viability by MTT assay; format: functional, cell-based
# [3] = biological target: T2, Lysine-specific demethylase 5A (Homo sapiens, UniProt P29375)
# [4] = system: LNCaP; assay: Antiproliferative activity against human LNCAP cells assessed as reduction in cell viability by MTT assay; format: functional, cell-based
# [5] = biological target: T3, Lysine-specific demethylase 4A (Homo sapiens, UniProt O75164)
# T3 sequence (O75164 whole entry): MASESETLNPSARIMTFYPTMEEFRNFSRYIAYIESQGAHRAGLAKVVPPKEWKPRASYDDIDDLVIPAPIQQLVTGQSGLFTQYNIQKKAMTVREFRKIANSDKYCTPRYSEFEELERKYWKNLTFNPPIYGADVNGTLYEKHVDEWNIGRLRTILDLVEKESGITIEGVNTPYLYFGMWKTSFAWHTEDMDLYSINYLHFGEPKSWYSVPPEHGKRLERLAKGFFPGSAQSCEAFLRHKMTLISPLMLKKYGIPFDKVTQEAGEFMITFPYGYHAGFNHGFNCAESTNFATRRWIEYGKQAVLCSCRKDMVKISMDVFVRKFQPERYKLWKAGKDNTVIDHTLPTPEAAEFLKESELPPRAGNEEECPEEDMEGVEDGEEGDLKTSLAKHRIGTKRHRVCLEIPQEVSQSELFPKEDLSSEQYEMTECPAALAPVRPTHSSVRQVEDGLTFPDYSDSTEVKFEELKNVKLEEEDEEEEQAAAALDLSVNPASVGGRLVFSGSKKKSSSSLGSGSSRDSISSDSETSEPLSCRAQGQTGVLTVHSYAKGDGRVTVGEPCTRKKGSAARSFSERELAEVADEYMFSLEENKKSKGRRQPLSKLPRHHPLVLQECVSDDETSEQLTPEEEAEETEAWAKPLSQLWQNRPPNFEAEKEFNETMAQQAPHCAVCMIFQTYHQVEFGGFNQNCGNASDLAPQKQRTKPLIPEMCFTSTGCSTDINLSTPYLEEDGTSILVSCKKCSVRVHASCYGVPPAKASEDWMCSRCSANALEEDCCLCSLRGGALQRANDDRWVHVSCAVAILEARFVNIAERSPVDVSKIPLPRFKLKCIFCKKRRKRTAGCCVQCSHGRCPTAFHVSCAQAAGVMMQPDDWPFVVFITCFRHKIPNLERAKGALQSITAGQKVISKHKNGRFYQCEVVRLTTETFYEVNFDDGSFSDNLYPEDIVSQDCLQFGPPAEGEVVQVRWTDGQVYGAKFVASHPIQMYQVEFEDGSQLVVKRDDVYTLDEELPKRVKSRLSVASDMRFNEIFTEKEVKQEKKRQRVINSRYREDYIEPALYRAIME
# [6] = biological target: T4, Lysine-specific demethylase 4C (Homo sapiens, UniProt Q9H3R0); assay: Inhibition of KDM4C (1 to 350 residues) (unknown origin) expressed in Escherichia coli using […] as substrate
# T4 sequence (Q9H3R0 whole entry): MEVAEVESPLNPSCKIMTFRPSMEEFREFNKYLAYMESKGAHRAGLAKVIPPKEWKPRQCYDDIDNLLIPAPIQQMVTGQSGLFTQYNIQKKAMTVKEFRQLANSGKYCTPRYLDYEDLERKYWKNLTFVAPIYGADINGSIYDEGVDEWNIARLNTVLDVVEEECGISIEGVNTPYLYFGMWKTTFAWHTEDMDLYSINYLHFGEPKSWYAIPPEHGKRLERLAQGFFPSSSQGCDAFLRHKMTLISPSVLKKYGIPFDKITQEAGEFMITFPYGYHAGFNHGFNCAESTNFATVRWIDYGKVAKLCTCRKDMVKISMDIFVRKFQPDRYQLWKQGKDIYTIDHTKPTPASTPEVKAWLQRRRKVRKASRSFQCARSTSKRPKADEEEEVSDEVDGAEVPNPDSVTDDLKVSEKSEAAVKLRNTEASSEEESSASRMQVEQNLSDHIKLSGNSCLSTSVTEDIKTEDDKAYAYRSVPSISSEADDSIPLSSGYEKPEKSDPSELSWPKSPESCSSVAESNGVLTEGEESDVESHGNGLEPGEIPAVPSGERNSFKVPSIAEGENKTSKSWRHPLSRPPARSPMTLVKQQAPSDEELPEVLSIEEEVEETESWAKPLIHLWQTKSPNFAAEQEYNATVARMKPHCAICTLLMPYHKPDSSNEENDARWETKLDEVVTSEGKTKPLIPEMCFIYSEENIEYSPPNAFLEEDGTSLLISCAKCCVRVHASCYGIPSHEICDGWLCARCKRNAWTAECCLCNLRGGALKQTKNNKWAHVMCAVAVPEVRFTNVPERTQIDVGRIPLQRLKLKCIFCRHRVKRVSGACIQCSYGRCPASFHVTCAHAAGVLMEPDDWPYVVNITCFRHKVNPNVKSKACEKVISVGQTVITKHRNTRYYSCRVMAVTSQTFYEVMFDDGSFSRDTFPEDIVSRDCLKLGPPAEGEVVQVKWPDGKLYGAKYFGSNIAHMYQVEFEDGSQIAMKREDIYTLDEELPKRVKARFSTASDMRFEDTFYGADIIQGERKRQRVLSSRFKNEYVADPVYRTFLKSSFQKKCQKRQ
# [7] = Antiproliferative activity against human PC3 cells assessed as reduction in cell viability by MTT assay; format: functional, cell-based; settings: PC-3
# [8] = biological target: T5, Lysine-specific histone demethylase 1A (Homo sapiens, UniProt O60341); assay: Inhibition of KDM1A in human THP1 cells assessed as inhibition of CD11b expressing cells incubated for 4 days by DAPI staining based flow cytometry; format: cell-based, THP-1
# [9] = biological target: T5, Lysine-specific histone demethylase 1A; assay: Inhibition of full length human KDM1A expressed in Escherichia coli using biotin-H3K4me1 as substrate incubated for 1 hr by TR-FRET assay
# [10] = biological target: T5, Lysine-specific histone demethylase 1A; assay: Inhibition of recombinant human N-terminal GST-tagged KDM1A expressed in Escherichia coli using H3K4me2 as substrate preincubated for 15 mins followed by substrate addition measured after 1 hr by peroxidase coupled enzyme assay
# [11] = biological target: T6, Amine oxidase [flavin-containing] B (Homo sapiens, UniProt P27338); assay: Inhibition of human recombinant MAO-B using 3-(2-Aminophenyl)-3-oxopropanamine as substrate preincubated for 15 mins followed by substrate addition measured after 1 hr by fluorescence microplate reader analysis
# T6 sequence (P27338 whole entry): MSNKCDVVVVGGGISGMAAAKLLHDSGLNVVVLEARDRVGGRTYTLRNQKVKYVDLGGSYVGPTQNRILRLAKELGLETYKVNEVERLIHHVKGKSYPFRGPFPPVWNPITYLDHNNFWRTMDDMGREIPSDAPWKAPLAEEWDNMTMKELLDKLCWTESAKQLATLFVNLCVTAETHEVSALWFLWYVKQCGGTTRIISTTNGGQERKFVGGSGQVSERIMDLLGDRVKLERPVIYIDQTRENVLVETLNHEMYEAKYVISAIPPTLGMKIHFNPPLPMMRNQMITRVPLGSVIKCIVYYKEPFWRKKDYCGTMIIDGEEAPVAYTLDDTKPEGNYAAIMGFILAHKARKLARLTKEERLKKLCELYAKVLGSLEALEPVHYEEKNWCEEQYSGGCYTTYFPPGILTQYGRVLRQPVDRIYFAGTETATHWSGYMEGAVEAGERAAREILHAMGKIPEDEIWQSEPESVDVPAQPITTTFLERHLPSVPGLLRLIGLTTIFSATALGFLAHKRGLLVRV
# [12] = biological target: T7, Amine oxidase [flavin-containing] A (Homo sapiens, UniProt P21397); assay: Inhibition of human recombinant MAO-A using 3-(2-Aminophenyl)-3-oxopropanamine as substrate preincubated for 15 mins followed by substrate addition measured after 1 hr by fluorescence microplate reader analysis
# T7 sequence (P21397 whole entry): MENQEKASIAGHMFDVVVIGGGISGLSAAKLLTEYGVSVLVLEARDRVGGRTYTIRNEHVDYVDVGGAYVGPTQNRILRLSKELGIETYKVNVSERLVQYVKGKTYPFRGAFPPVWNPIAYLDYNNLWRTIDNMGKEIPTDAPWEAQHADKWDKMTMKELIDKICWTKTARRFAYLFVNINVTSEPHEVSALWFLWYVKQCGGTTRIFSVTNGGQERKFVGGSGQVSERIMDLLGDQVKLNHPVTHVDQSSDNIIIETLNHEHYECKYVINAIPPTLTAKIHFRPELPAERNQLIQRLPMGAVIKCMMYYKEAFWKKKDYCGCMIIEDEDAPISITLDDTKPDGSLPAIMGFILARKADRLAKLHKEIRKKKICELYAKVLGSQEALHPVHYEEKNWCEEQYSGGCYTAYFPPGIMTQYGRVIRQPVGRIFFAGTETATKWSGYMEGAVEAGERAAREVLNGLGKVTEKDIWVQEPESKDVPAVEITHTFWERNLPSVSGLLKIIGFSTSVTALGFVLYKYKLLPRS
# [13] = biological target: T3, Lysine-specific demethylase 4A; remark: listed apart in the source
# [14] = biological target: T3, Lysine-specific demethylase 4A; remark: listed apart in the source
# [15] = biological target: Lysine-specific demethylase 6B (Homo sapiens, UniProt O15054); assay: Inhibition of human C-terminal FLAG-tagged KDM6B (1043 residues) expressed in baculovirus infected sf9 cells using H3K27me3 (21 to 44 residues) substrate preincubated for 10 mins followed by substrate addition measured after 45 mins by TR-FRET assay
# [16] = biological target: T2, Lysine-specific demethylase 5A; design: species or system Sf9
# [17] = biological target: T3, Lysine-specific demethylase 4A; remark: listed apart in the source
# [18] = system: HeLa; assay: Antiproliferative activity against human HeLa cells assessed as reduction in cell viability after 72 hrs by MTT assay; format: functional, cell-based
# [19] = biological target: T5, Lysine-specific histone demethylase 1A
# [20] = system: MDA-MB-231; assay: Antiproliferative activity against human MDA-MB-231 cells assessed as reduction in cell viability after 72 hrs by MTT assay; format: functional, cell-based; settings: MDA-MB-231, 72 h
# T2 sequence (P29375 whole entry): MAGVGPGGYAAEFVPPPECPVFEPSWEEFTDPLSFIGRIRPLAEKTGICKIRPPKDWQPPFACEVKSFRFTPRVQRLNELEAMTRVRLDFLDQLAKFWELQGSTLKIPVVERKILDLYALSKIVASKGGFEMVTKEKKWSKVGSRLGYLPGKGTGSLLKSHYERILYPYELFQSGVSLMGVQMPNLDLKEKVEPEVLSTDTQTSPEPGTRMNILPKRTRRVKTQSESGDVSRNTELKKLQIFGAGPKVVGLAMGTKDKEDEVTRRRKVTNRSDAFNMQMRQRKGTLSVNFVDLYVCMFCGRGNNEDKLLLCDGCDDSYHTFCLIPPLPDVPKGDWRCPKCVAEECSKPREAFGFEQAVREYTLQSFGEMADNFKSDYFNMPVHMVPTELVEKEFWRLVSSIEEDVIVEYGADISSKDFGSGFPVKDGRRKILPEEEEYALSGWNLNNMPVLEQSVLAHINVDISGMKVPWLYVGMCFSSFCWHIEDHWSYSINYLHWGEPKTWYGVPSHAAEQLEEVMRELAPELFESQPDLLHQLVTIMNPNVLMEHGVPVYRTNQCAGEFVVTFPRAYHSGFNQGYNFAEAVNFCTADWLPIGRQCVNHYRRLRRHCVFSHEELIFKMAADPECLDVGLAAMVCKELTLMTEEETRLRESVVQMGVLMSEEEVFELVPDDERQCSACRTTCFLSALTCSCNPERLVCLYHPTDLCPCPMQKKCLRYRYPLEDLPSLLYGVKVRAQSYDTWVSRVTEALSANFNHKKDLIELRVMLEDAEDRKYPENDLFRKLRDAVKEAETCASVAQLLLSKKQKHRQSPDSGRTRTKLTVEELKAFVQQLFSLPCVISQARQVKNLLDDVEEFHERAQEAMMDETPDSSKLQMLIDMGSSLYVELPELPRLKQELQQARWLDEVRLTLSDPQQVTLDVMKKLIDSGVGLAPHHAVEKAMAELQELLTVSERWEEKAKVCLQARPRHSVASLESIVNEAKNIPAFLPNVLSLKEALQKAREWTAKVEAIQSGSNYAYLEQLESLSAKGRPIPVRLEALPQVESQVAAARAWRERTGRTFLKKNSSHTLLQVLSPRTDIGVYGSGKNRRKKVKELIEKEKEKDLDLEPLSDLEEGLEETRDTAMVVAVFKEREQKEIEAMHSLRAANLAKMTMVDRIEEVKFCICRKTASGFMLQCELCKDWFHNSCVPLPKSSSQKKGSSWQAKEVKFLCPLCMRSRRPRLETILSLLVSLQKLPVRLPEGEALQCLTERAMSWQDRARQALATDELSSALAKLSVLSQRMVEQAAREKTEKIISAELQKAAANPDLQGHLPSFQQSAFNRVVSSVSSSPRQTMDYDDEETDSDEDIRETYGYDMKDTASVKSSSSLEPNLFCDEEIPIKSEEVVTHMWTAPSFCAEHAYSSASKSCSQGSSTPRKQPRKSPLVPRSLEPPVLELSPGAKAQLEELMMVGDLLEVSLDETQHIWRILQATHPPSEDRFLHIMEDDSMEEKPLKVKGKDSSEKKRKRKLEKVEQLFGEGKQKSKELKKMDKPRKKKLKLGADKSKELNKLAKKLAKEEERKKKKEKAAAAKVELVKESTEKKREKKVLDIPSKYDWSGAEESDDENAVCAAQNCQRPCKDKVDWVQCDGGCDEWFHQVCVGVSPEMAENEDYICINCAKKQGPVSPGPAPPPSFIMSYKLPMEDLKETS
# Lysine-specific demethylase 6B, sequence (O15054 whole entry, the tested form may be a part): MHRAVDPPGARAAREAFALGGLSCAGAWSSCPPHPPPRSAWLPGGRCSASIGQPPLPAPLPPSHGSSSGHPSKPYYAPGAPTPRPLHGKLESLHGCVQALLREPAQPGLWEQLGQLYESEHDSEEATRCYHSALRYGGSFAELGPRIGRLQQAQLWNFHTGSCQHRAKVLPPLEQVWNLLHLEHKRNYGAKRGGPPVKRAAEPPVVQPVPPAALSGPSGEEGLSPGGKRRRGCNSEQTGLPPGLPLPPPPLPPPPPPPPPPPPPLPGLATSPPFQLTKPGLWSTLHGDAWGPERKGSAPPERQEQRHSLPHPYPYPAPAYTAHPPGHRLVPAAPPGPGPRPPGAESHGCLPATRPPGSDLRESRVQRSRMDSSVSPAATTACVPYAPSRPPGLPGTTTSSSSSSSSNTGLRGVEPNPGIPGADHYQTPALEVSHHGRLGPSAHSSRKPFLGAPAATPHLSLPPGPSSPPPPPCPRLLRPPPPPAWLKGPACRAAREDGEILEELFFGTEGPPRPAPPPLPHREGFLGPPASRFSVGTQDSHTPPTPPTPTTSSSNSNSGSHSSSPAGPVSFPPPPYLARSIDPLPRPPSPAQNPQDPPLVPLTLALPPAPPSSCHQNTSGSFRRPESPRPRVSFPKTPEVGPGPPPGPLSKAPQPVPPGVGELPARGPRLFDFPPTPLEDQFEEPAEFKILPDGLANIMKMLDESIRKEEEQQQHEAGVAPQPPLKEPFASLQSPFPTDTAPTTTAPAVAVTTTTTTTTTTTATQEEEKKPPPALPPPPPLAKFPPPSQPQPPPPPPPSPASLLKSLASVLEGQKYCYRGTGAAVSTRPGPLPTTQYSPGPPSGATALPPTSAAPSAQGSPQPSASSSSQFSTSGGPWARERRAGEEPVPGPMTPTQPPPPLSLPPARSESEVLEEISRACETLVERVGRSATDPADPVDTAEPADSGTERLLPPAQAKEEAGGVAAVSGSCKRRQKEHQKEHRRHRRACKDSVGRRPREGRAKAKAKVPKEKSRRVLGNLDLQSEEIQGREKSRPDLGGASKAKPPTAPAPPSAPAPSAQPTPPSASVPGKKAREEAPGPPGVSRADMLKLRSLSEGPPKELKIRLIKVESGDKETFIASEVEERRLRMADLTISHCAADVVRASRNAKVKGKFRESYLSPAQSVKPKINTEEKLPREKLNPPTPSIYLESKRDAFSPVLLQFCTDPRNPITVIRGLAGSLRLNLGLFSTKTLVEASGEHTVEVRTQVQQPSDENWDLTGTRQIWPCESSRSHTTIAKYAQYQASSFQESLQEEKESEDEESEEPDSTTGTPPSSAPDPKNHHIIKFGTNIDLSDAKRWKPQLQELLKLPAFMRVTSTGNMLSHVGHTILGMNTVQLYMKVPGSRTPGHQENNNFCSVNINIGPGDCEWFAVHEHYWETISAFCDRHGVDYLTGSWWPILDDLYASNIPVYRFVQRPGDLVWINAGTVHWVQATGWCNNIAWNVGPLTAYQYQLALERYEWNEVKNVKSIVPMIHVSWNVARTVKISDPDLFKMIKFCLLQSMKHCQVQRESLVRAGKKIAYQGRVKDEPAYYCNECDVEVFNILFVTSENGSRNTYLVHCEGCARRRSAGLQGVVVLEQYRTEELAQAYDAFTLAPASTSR
structure (smiles),measurement,setting,value
O=C(NCCCc1ccccc1)c1cccc(-c2cc(O)c3ncccc3c2)c1,IC50,[1],10 nM
same,IC50,[2],< 1000 nM
same,IC50,[3],> 10 µM
same,IC50,[4],< 1000 nM
same,IC50,[5],< 1000 nM
same,IC50,[6],< 1000 nM
same,IC50,[7],40 nM
Cc1ccc(-c2cnc(NC[C@H]3CCNC3)nc2-c2ccc(C#N)cc2)cc1,IC50,[8],< 10 nM
same,IC50,[9],< 10 nM
CC(C)S(=O)(=O)Nc1cccc(-c2ccc([C@H]3C[C@@H]3N)cc2)c1,IC50,[10],70 nM
same,IC50,[11],> 10 µM
same,IC50,[12],> 1000 nM
NNC(=O)Cc1nnn[nH]1,Ki,[13],1940 nM
same,IC50,[14],46.6 µM
same,IC50,[15],98 µM
same,IC50,[16],10.4 µM
same,IC50,[17],2400 nM
CSCCc1nc(-c2cc(N)ccc2Cl)oc1C,IC50,[18],1.2 nM
same,IC50,[19],10.1 µM
same,IC50,[20],1.2 nM
